Measured values: patent US12202835B2, “Substituted aromatic ring-linked dioxinoquinazolines and dioxinoquinolines as kinase inhibitors” (BEIJING SCITECH-MQ PHARMACEUTICALS LIMITED, priority 2018, dated 2025)

Assays:
MER kinase = MER kinase (Homo sapiens (Human), UniProt Q12866); test: Assay of small molecular compounds for inhibiting the activity of MER kinase (LANCE TR-FRET); type: biochemical
Summary of the method: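 MER kinase preincubated 5 min at RT with compound (11 points, 0.042-2500 nM final), then ULight-poly GT and ATP added (4× stocks 200 nM and 20 μM) for 60 min at RT, 1% DMSO. Phosphorylation detected by LANCE TR-FRET; IC50 from % inhibition versus controls.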

VEGFR-2 kinase = VEGFR-2 kinase (Homo sapiens (Human), UniProt P35968); test: Assay of small molecular compounds for inhibiting the activity of VEGFR-2 kinase (LANCE TR-FRET); type: biochemical; conditions: read-out: VEGFR2 IC50
Summary of the method: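 LANCE TR-FRET with human VEGFR-2 (2× stock 0.5 nM) preincubated 30 min with compound (final 2500 to 0.042 nM, 11-point 3-fold), then ULight-JAK-1 (Tyr1023) peptide/ATP added (4× stocks 200 nM/40 μM). Reaction 60 min room temperature, 4% DMSO; IC50 from inhibition-rate curve.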

MHCC97H cells = test: Assay for inhibiting the proliferation of MHCC97H cells (CCK-8); type: cell-based; conditions: Homo sapiens
Summary of the method: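 Cells seeded in 96-well plates overnight, then exposed 72 h to 9 three-fold dilutions of compound (0.25% DMSO final). Viability by CCK-8 (1-2 h at 37° C., OD 450 nm), survival normalized to untreated and cell-free blanks; IC50 by curve fitting.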

Chain of VEGFR-2 kinase (P35968 20-1356): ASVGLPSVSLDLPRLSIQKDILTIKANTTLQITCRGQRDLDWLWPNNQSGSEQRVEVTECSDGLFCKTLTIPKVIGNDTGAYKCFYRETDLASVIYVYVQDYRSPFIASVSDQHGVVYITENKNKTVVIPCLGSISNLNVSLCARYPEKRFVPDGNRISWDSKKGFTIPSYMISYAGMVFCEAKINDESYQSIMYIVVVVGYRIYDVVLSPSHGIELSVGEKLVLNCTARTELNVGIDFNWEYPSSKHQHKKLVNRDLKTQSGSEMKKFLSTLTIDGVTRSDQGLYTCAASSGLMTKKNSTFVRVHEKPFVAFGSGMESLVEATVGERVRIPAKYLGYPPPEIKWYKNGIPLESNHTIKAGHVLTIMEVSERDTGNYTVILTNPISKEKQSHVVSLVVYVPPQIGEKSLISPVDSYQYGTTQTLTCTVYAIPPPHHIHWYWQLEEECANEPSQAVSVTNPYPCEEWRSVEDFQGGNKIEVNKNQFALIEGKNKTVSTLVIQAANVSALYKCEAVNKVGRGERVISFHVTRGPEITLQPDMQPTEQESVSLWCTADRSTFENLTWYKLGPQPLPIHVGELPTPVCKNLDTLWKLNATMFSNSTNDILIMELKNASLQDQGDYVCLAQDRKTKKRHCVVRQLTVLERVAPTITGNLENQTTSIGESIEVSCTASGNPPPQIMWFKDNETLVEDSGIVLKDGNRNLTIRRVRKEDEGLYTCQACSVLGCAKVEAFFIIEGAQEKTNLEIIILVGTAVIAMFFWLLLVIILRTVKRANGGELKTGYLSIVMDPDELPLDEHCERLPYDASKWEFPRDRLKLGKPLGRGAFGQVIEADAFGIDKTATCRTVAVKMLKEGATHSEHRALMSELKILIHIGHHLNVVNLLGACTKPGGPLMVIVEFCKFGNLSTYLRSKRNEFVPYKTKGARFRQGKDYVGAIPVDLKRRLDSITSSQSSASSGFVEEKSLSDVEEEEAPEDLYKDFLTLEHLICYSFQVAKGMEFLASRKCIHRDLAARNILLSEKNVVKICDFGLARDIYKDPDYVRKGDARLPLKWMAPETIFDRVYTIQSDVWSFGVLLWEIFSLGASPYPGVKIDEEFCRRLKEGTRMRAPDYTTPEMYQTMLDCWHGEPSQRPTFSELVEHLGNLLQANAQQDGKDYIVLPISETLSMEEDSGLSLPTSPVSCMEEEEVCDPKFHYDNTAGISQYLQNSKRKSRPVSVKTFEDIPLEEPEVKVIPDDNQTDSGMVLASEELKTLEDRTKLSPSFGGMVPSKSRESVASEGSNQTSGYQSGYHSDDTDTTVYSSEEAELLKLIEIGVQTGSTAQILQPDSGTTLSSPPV
Chain of MER kinase (Q12866 21-999): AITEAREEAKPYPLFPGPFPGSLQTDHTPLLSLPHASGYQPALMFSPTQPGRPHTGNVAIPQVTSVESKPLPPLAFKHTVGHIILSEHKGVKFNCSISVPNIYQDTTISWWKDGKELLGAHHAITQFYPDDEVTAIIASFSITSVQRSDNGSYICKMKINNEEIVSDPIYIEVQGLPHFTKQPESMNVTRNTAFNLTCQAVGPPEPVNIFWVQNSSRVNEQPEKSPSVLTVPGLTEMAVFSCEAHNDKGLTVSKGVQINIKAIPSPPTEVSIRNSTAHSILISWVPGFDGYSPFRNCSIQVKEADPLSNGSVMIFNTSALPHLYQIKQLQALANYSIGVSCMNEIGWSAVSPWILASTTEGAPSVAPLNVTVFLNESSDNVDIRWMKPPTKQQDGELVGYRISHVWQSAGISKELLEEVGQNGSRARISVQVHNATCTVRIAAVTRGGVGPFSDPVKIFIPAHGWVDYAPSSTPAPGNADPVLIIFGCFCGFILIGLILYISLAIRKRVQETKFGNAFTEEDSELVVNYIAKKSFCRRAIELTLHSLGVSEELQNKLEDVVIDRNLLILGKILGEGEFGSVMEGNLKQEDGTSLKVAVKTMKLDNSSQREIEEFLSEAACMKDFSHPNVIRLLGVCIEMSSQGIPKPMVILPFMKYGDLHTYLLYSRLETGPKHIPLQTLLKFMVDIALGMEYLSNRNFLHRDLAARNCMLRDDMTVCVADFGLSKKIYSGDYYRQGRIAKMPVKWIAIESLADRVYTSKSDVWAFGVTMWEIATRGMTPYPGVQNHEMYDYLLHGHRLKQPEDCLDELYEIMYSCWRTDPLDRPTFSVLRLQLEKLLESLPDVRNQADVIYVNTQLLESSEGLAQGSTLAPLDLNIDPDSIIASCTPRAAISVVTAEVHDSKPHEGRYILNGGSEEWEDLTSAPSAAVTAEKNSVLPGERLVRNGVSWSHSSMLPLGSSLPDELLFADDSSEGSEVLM

Question: How did the IC50 (MER kinase) turn out when `CCOc1ccn(-c2ccc(F)cc2)c(=O)c1C(=O)Nc1ccc(Oc2ccnc3cc(OCCOC)c4c(c23)OCCO4)c(F)c1` [Example 36, N-(3-fluoro-4-((5-(2-methoxyethoxy)-2,3-dihydro-[1,4]dioxino[2,3-f]quinolin-10-yl)oxy)phenyl)-1-(4-fluorophenyl)-4-ethoxy-2-oxo-1,2-dihydropyridine-3-carboxamide] was run?
Answer: The IC50 was at most 50 nM.

Question: What about the IC50 (VEGFR-2 kinase) of the same compound?
Answer: The IC50 was at most 50 nM.

Question: What about the IC50 (MHCC97H cells) of the same compound?
Answer: Its IC50 is at most 50 nM.

Question: How did the IC50 (MER kinase) turn out when `CCOc1ccn(-c2ccc(F)cc2)c(=O)c1C(=O)Nc1ccc(Oc2ccnc3cc(OCCCN4CCOCC4)c4c(c23)OCCO4)c(F)c1` [Example 22, N-(3-fluoro-4-((5-(3-morpholinopropoxy)-2,3-dihydro-[1,4]dioxino[2,3-f]quinolin-10-yl)oxy)phenyl)-1-(4-fluorophenyl)-4-ethoxy-2-oxo-1,2-dihydropyridine-3-carboxamide] was run?
Answer: Its IC50 is at most 50 nM.

Question: What about the IC50 (VEGFR-2 kinase) of the same compound?
Answer: The IC50 was at most 50 nM.

Question: And the IC50 (MHCC97H cells)?
Answer: Its IC50 is at most 50 nM.

Question: How did the IC50 (MER kinase) turn out when `C=CCn1cc(C(=O)Nc2ccc(Oc3ccnc4cc(OC)c5c(c34)OCCO5)c(F)c2)c(=O)n(-c2ccc(F)cc2)c1=O` [Example 100, N-(3-fluoro-4-((5-methoxy-2,3-dihydro-[1,4]dioxino[2,3-f]quinolin-10-yl)oxy)phenyl)-3-(4-fluorophenyl)-1-allyl-2,4-dioxo-1,2,3,4-tetrahydropyrimidine-5-carboxamide] was run?
Answer: The IC50 was at most 50 nM.

Question: And the IC50 (VEGFR-2 kinase)?
Answer: Its IC50 is 500 to 5000 nM.

Question: And the IC50 (MHCC97H cells)?
Answer: Its IC50 is at most 50 nM.

Question: What does the source list for `COc1cc2nccc(Oc3ccc(NC(=O)c4cn(CCF)c(=O)n(-c5ccc(F)cc5)c4=O)cc3F)c2c2c1OCCO2` [Example 101, N-(3-fluoro-4-((5-methoxy-2,3-dihydro-[1,4]dioxino[2,3-f]quinolin-10-yl)oxy)phenyl)-3-(4-fluorophenyl)-1-(2-fluoroethyl)-2,4-dioxo-1,2,3,4-tetrahydropyrimidine-5-carboxamide]?
Answer: IC50 (MER kinase): ≤ 50 nM; IC50 (VEGFR-2 kinase): 500 to 5000 nM; IC50 (MHCC97H cells): ≤ 50 nM

Question: `CCOc1ccn(-c2ccc(F)cc2)c(=O)c1C(=O)Nc1ccc(Oc2ccnc3cc(OCC4(N)CC4)c4c(c23)OCCO4)c(F)c1` [Example 105, N-(4-((5-((1-aminocyclopropyl)methoxy)-2,3-dihydro-[1,4]dioxino[2,3-f]quinolin-10-yl)oxy)-3-fluorophenyl)-4-ethoxy-1-(4-fluorophenyl)-2-oxo-1,2-dihydropyridine-3-carboxamide] was tested. Which IC50 (MER kinase) did it give?
Answer: Its IC50 is at most 50 nM.

Question: What about the IC50 (VEGFR-2 kinase) of the same compound?
Answer: Its IC50 is 50 to 500 nM.

Question: And the IC50 (MHCC97H cells)?
Answer: The IC50 was 50 to 200 nM.

Question: What does the source list for `CC(C)n1cc(C(=O)Nc2ccc(Oc3ccnc4cc(OCC5(N)CC5)c5c(c34)OCCO5)c(F)c2)c(=O)n(-c2ccc(F)cc2)c1=O` [Example 106, N-(3-fluoro-4-((5-((1-aminocyclopropyl)methoxy)-2,3-dihydro-[1,4]dioxino[2,3-f]quinolin-1 0-yl)oxy)phenyl)-3-(4-fluorophenyl)-1-isopropyl-2,4-dioxo-1,2,3,4-tetrahydropyrimidine-5-carboxamide]?
Answer: IC50 (MER kinase): ≤ 50 nM; IC50 (VEGFR-2 kinase): > 5000 nM; IC50 (MHCC97H cells): 50 to 200 nM

Question: How did the IC50 (MER kinase) turn out when `CCOc1ccn(-c2ccc(F)cc2)c(=O)c1C(=O)Nc1ccc(Oc2ncnc3cc(OCCCN4CCOCC4)c4c(c23)OCCO4)c(F)c1` [Example 6, N-(3-fluoro-4-((5-(3-morpholinopropoxy)-2,3-dihydro-[1,4]dioxino[2,3-f]quinazolin-10-yl)oxy)phenyl)-1-(4-fluorophenyl)-4-ethoxy-2-oxo-1,2-dihydropyridine-3-carboxamide] was run?
Answer: Its IC50 is at most 50 nM.

Question: And the IC50 (VEGFR-2 kinase)?
Answer: The IC50 was 50 to 500 nM.

Question: And the IC50 (MHCC97H cells)?
Answer: The IC50 was 50 to 200 nM.

Question: What does the source list for `COc1ccn(-c2ccc(F)cc2)c(=O)c1C(=O)Nc1ccc(Oc2ncnc3cc(OCCCN4CCOCC4)c4c(c23)OCCO4)c(F)c1` [Example 5, N-(3-fluoro-4-((5-(3-morpholinopropoxy)-2,3-dihydro-[1,4]dioxino[2,3-f]quinazolin-10-yl)oxy)phenyl)-1-(4-fluorophenyl)-4-methoxy-2-oxo-1,2-dihydropyridine-3-carboxamide]?
Answer: IC50 (MER kinase): ≤ 50 nM; IC50 (VEGFR-2 kinase): 50 to 500 nM; IC50 (MHCC97H cells): 50 to 200 nM
